Structures can show the parent of a compound that is named as a salt. Where two headings read alike, the source gives them in different places.
What was measured:
[1] = molecular target: BIR3 domain of human cIAP-1 (residues 267-363) (Homo sapiens (Human), UniProt Q13490); test: cIAP-1 in vitro competitive displacement binding assay (fluorescence polarization; Probe A AVPIK(5&6FAM)-amide or Probe B AbuRPFK(5&6FAM)-amide)
[2] = molecular target: BIR3 domain of human XIAP (residues 252-350) (Homo sapiens (Human), UniProt P98170); test: XIAP in vitro competitive displacement binding assay (fluorescence polarization); settings: for IC50: read-out: IC50 or PI Xiap: IC50
[3] = system: EVSA-T (human breast carcinoma); test: Anti-proliferative activity, Alamar Blue assay, EVSA-T; type: cell-based; settings: for EC50: Homo sapiens
[4] = Probe B AbuRPFK(5&6FAM)-amide, read-out: IC50 or PI cIAP1: IC50
[5] = EVSA-T, 72 hours, Alamar Blue, read-out: EVSA-T prolif (EC50)
[6] = read-out: IC50 or PI cIAP1: IC50
[7] = EVSA-T, 72 h, read-out: EVSA-T prolif (EC50)
[8] = 3 h, Probe B, @ 0.012 μM, read-out: IC50 or PI cIAP1: PI
[9] = 3 h, read-out: IC50 or PI cIAP1: PI
[10] = 1 h, read-out: IC50 or PI Xiap: PI

IC50 [1, 4] | IC50 [2] | EC50 [3, 5] | SMILES | EC50 [3, 7] | other results
130 nM | 110 nM | 2300 nM | CNC(=O)[C@H]1CN[C@H](C)CN1CC(=O)N1CC(C)(C)c2cc(F)c(S(=O)(=O)c3ccccc3)cc21 [Example 56, (2R,5R)-1-[2-(6-Benzenesulfonyl-5-fluoro-3,3-dimethyl-2,3-dihydro-indol-1-yl)-2-oxo-ethyl]-5-methyl-piperazine-2-carboxylic acid methylamide hydrochloride salt] |  | IC50 [1]: < 1000 nM; EC50 ([3]; EVSA-T cell line, 72 hours, Alamar Blue, read-out: EC50, inhibition of cell growth): < 10000 nM
99 nM | 390 nM | 560 nM | COC[C@H]1CN[C@H](C)CN1CC(=O)N1CC(C)(C)c2cnc(Oc3ccccc3)cc21 [Example 74, 1-(3,3-Dimethyl-6-phenoxy-2,3-dihydro-pyrrolo[3,2-c]pyridin-1-yl)-2-((2R,5R)-2-methoxymethyl-5-methyl-piperazin-1-yl)-ethanone hydrochloride salt] |  | 
 | 81 nM | 5.2 nM | C[C@@H]1CN(CC(=O)N2CC(C)(C)c3nnc(Cc4ccc(F)cc4F)cc32)[C@@H](CN2CCCC2=O)CN1 [Example 201, 1-{[(2R,5R)-1-(2-{3-[(2,4-Difluorophenyl)methyl]-7,7-dimethyl-5H,6H,7H-pyrrolo[3,2-c]pyridazin-5-yl}-2-oxoethyl)-5-methylpiperazin-2-yl]methyl}pyrrolidin-2-one hydrochloride] |  | inhibition at […] [1, 8]: 88%
13 nM | 160 nM | 450 nM | COC[C@H]1CN[C@H](C)CN1CC(=O)N1CC(C)(c2cccnc2)c2ccc(Cc3ccccc3)cc21 (stereo partly drawn) [Example 163, 1-[6-Benzyl-3-methyl-3-(pyridin-3-yl)-2,3-dihydro-1H-indol-1-yl]-2-[(2R,5R)-2-(methoxymethyl)-5-methylpiperazin-1-yl]ethan-1-one hydrochloride] |  | IC50 [1]: < 1000 nM
35 nM | 530 nM | 1900 nM | COC[C@H]1CN[C@H](C)CN1CC(=O)N1CC(C)(C)c2cnc(Cc3ccccc3Cl)cc21 [Example 78, 1-{6-[(2-Chlorophenyl)methyl]-3,3-dimethyl-1H,2H,3H-pyrrolo[3,2-c]pyridin-1-yl}-2-[(2R,5R)-2-(methoxy-methyl)-5-methyl-piperazin-1-yl]ethan-1-one hydrochloride salt] |  | 
 |  |  | C[C@@H]1CN(CC(=O)N2CCc3cc(=O)n(Cc4ccccc4)cc32)CCN1.Cl [Example 39, 6-Benzyl-1-[2-((R)-3-methyl-piperazin-1-yl)-acetyl]-1,2,3,6-tetrahydro-pyrrolo[2,3-c]pyridin-5-one hydrochloride salt] |  | inhibition at 1 µM ([1]; 3 h, Probe A, @ 1 μM, read-out: IC50 or PI cIAP1: PI): 46%; inhibition at 3 µM ([2]; 1 h, @ 3 μM, read-out: IC50 or PI Xiap: PI): 55%; EVSA-T prolif: % inhibition ([3]; concentration not printed (cell truncated)): −15% at
11 nM | 110 nM | 200 nM | COC[C@H]1CN[C@H](C)CN1CC(=O)N1C[C@@](C)(c2cc(C)no2)c2ccc(Cc3ccccc3)cc21 [Example 175, 1-[(3S)-6-Benzyl-3-methyl-3-(3-methyl-1,2-oxazol-5-yl)-2,3-dihydro-1H-indol-1-yl]-2-[(2R,5R)-2-(methoxymethyl)-5-methylpiperazin-1-yl]ethan-1-one hydrochloride] |  | IC50 [1]: < 1000 nM
 |  | 26 nM | C[C@@H]1CN(CC(=O)N2CC(C)(C)c3cnc(C(F)(F)c4ccccc4)cc32)[C@@H](Cn2cc(F)cn2)CN1 [Example 176, 1-{6-[Difluoro(phenyl)methyl]-3,3-dimethyl-1H,2H,3H-pyrrolo[3,2-c]pyridin-1-yl}-2-[(2R,5R)-2-[(4-fluoro-1H-pyrazol-1-yl)methyl]-5-methylpiperazin-1-yl]ethan-1-one hydrochloride] |  | inhibition at […] [1, 8]: 70%; inhibition at 0.04 µM ([2]; 1 h, @ 0.04 μM, read-out: IC50 or PI Xiap: PI): 52%
 | 170 nM | 40 nM | COC[C@H]1CN[C@H](C)CN1CC(=O)N1CC(C)(C)c2cnc(Cc3ccc(F)cc3)cc21 [Example 88, 1-{6-[(4-Fluoro-phenyl)methyl]-3,3-dimethyl-1H,2H,3H-pyrrolo[3,2-c]pyridin-1-yl}-2-[(2R,5R)-2-(methoxy-methyl)-5-methyl-piperazin-1-yl]ethan-1-one, hydrochloride salt] |  | inhibition at 0.01 µM ([1]; 3 h, Probe B, @ 0.01 μM, read-out: IC50 or PI cIAP1: PI): 84%
150 nM | 63 nM | 4800 nM | C[C@@H]1CN(CC(=O)N2CC3(Cc4ccccc4C3)c3ccc(C#N)cc32)[C@@H](C(=O)N2CCOCC2)CN1 [Example 109, 1′-{2-[(2R,5R)-5-Methyl-2-[(morpholin-4-yl)carbonyl]piperazin-1-yl]acetyl}-1,1′,2′,3-tetrahydro-spiro[indene-2,3′-indole]-6′-carbonitrile, hydrochloride salt] |  | 
79 nM | 270 nM | 330 nM | COC[C@H]1CN[C@H](C)CN1CC(=O)N1CC(C)(C)c2cnc(C3=CCCC3)cc21 [Example 90, 1-[6-(Cyclopent-1-en-1-yl)-3,3-dimethyl-1H,2H,3H-pyrrolo[3,2-c]pyridin-1-yl]-2-[(2R,5R)-2-(methoxymethyl)-5-methylpiperazin-1-yl]ethan-1-one, hydrochloride salt] |  | 

SMILES | IC50 [1, 4] | IC50 [2] | EC50 [3, 5] | EC50 [3, 7] | other results
C[C@@H]1CN(CC(=O)N2CC(C)(C)c3ncc(C(C)(F)F)cc32)[C@@H](CN2CCN(C)C(=O)C2)CN1 [Example 228, 4-{[(2R,5R)-1-{2-[6-(1,1-Difluoroethyl)-3,3-dimethyl-1H,2H,3H-pyrrolo[3,2-b]pyridin-1-yl]-2-oxoethyl}-5-methylpiperazin-2-yl]methyl}-1-methylpiperazin-2-one dihydrochloride] |  | 99 nM |  | 680 nM | IC50 [1]: < 1000 nM; IC50 [1, 6]: 24 nM
COC[C@H]1CN[C@H](C)CN1CC(=O)N1CC(C)(C)c2ccc(S(=O)(=O)Cc3ccccc3)cc21 [Example 70, 1-(3,3-Dimethyl-6-phenylmethane-sulfonyl-2,3-dihydro-indol-1-yl)-2-((2R,5R)-2-methoxymethyl-5-methyl-piperazin-1-yl)-ethanone dihydrochloride salt] |  | 380 nM |  | 7900 nM | IC50 [1, 6]: 820 nM; EC50 ([3]; EVSA-T, 72 h, read-out: EC50, inhibition of cell growth): < 10000 nM
C[C@@H]1CN(CC(=O)N2CC(C)(C)c3cnc(C(F)(F)c4ccccc4)cc32)[C@@H](CN2CCOCC2)CN1 [Example 224, 1-{6-[Difluoro(phenyl)methyl]-3,3-dimethyl-1H,2H,3H-pyrrolo[3,2-c]pyridin-1-yl}-2-[(2R,5R)-5-methyl-2-(morpholin-4-ylmethyl)piperazin-1-yl]ethan-1-one dihydrochloride] |  |  | 19 nM |  | inhibition at […] [1, 9]: 83%; inhibition at 0.04 µM [2, 10]: 77%
COC[C@H]1CN[C@H](C)CN1CC(=O)N1CC(C)(C)c2cnc(-c3ccoc3)cc21 [Example 145, 1-[6-(Furan-3-yl)-3,3-dimethyl-1H,2H,3H-pyrrolo[3,2-c]pyridin-1-yl]-2-[(2R,5R)-2-(methoxymethyl)-5-methylpiperazin-1-yl]ethan-1-one dihydrochloride] |  | 1000 nM |  | 9800 nM | IC50 [1, 6]: 180 nM
COC[C@H]1CN[C@H](C)CN1CC(=O)N1CC(C)(C)c2cnc(-c3ccc(C)s3)cc21 [Example 148, 1-[3,3-Dimethyl-6-(5-methylthiophen-2-yl)-1H,2H,3H-pyrrolo[3,2-c]pyridin-1-yl]-2-[(2R,5R)-2-(methoxymethyl)-5-methylpiperazin-1-yl]ethan-1-one dihydrochloride] |  | 360 nM |  | 2000 nM | IC50 [1, 6]: 45 nM
C[C@@H]1CN(CC(=O)N2CC(C)(C)c3cnc(Cc4ccc(F)cc4F)cc32)[C@@H](CN2CCOCC2)CN1 [Example 219, 1-{6-[(2,4-Difluorophenyl)methyl]-3,3-dimethyl-1H,2H,3H-pyrrolo[3,2-c]pyridin-1-yl}-2-[(2R,5R)-5-methyl-2-(morpholin-4-ylmethyl)piperazin-1-yl]ethan-1-one dihydrochloride] |  | 53 nM |  | 5 nM | inhibition at […] [1, 9]: 93%
C[C@@H]1CN(CC(=O)N2CC(C)(C)c3ncc(Cc4ccc(F)cc4F)cc32)[C@@H](CN2CCOC[C@H]2C)CN1 [Example 264, 1-[6-(2,4-Difluoro-benzyl)-3,3-dimethyl-2,3-dihydro-pyrrolo[3,2-b]pyridin-1-yl]-2-[(2R,5R)-5-methyl-2-((R)-3-methyl-morpholin-4-ylmethyl)-piperazin-1-yl]-ethanone, dihydrochloride] |  |  | 1 nM |  | inhibition at […] [1, 9]: 98%; inhibition at 0.04 µM [2, 10]: 68%
C[C@@H]1CN(CC(=O)N2CC(C)(C)c3cnc(Cc4ccc(F)cc4F)cc32)[C@@H](CN2CCC(F)(F)C2)CN1 [Example 208, 1-{6-[(2,4-Difluorophenyl)methyl]-3,3-dimethyl-1H,2H,3H-pyrrolo[3,2-c]pyridin-1-yl}-2-[(2R,5R)-2-[(3,3-difluoropyrrolidin-1-yl)methyl]-5-methylpiperazin-1-yl]ethan-1-one dihydrochloride] |  | 64 nM |  | 4 nM | inhibition at […] [1, 9]: 99%
CCCC(F)(F)c1cnc2c(c1)N(C(=O)CN1C[C@@H](C)NC[C@@H]1CN1CCOC[C@H]1CC)CC2(C)C [Example 248, 1-[6-(1,1-Difluorobutyl)-3,3-dimethyl-1H,2H,3H-pyrrolo[3,2-b]pyridin-1-yl]-2-[(2R,5R)-2-{[(3R)-3-ethylmorpholin-4-yl]methyl]-5-methylpiperazin-1-yl]ethan-1-one dihydrochloride] |  |  | 10 nM |  | inhibition at […] [1, 9]: 91%; inhibition at 0.04 µM [2, 10]: 69%

Source: patent publication US9018214B2, “Bicyclic heterocycle compounds and their uses in therapy” (Astex Therapeutics Limited, priority 2011, dated 2015)
